Measured values published in patent US20040087661A1, “Treatment of CNS disorders with trans 4-3(3,4-dichlorophenyl)-1,2,3,4-tetrahydro-N-methyl-1-napthalenamine” (Sepracor, Inc., priority 2002, published 2004).
Like-named read-outs stand apart in the source and are kept apart here.

What was measured:
[1] = target: T1, functional uptake of dopamine (DA) (Rattus norvegicus, UniProt P23977); test: Dopamine functional uptake assay in rat striatum synaptosomes; format: biochemical; details: initial test at 10 μM in duplicate; read-out: inhibition of DA uptake (no IC50 determined)
T1 construct: synaptosomes isolated at Cerep in a 0.32 M sucrose buffer from a male Wistar rat striatum; tissue Cerep; host or cells: male Wistar rat striatum synaptosomes
T1 sequence (P23977 whole entry): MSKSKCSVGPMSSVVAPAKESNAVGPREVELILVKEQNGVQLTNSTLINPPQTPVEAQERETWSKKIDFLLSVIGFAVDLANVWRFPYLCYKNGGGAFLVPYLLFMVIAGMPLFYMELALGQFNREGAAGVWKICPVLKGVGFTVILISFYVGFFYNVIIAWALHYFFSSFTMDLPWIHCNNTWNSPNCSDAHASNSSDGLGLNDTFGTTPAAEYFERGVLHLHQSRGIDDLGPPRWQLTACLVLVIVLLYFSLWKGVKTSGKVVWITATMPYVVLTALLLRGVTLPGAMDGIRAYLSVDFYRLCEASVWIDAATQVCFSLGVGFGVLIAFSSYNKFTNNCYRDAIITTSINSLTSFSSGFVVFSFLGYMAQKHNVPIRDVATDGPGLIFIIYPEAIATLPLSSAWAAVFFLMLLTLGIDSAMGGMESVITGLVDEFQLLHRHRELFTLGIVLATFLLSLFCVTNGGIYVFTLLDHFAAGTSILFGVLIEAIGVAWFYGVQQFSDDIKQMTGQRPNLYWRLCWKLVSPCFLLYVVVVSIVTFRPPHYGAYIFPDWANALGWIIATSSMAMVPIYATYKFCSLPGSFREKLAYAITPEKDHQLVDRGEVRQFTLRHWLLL
Procedure: Dopamine Functional Uptake Assay
Characterization of dopamine uptake is performed using synaptosomes isolated at Cerep in a 0.32 M sucrose buffer from a male Wistar rat striatum. The uptake of radiolabelled dopamine by synaptosomes (20 μg of proteins/point) is allowed by incubating them in a deep well for 15 minutes at 37° C. in presence of test compounds and [^3H]-dopamine (0.1 μCi/point).
Synaptosomes and [^3H]-dopamine are prepared in a Krebs buffer pH 7.4 containing 25 mM NaHCO3, 11 mM glucose and 50 μM ascorbic acid. This incubation buffer is oxygenated during 5 minutes before incubation. Basal control is incubated for 15 minutes at 4° C. in order to avoid any uptake. Following this incubation the uptake is stopped by filtration through an “unifilter 96-wells GFB” Packard plate washed with Krebs buffer containing 25 mM NaHCO3 in order to eliminate the free [^3H]-dopamine. The radioactivity associated to the synaptosomes retained onto the unifilter corresponding to the uptake is then measured with a microplate scintillation counter Topcount, Packard using a scintillation liquid microscint 0, Packard.

[2] = target: T2, functional uptake of norepinephrine (NE) (Rattus norvegicus, UniProt Q63380); test: Norepinephrine functional uptake assay in rat hypothalamus synaptosomes; format: biochemical; details: read-out: inhibition of NE uptake (no IC50 determined)
T2 construct: synaptosomes isolated at Cerep in a 0.32 M sucrose buffer from a male Wistar rat hypothalamus; tissue Cerep; host or cells: male Wistar rat hypothalamus synaptosomes
T2 sequence (Q63380 1-617): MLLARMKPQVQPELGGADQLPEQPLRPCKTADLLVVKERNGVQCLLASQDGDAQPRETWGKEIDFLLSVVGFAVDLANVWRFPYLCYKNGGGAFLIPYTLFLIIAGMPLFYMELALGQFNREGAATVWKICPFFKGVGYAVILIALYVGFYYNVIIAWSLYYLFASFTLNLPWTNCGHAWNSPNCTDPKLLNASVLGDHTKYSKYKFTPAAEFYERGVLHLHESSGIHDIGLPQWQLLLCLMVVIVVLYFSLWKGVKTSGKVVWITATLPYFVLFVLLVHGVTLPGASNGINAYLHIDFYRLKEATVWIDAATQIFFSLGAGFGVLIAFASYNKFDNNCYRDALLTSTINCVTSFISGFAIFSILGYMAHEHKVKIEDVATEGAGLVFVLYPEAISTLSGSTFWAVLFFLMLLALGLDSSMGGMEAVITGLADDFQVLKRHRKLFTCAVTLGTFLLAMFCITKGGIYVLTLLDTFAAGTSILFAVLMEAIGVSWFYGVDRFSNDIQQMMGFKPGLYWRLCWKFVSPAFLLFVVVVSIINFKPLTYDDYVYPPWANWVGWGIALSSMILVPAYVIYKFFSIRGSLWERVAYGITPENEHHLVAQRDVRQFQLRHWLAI
Procedure: Norepinephrine Functional Uptake Assay
Characterization of norepinephrine uptake is performed using synaptosomes isolated at Cerep in a 0.32 M sucrose buffer from a male Wistar rat hypothalamus. The uptake of radiolabeled norepinephrine by synaptosomes (100 μg of proteins/point) is allowed by incubating them in a deep well for 20 minutes at 37° C. in presence of test compounds and [^3H]-norepinephrine (0.1 μCi/point).
Synaptosomes and [^3H]-norepinephrine are prepared in a Krebs buffer pH 7.4 containing 25 mM NaHCO3, 11 mM glucose and 50 μM ascorbic acid. This incubation buffer is oxygenated during 5 minutes before incubation. Basal control is incubated for 20 minutes at 4° C. in order to avoid any uptake. Following this incubation the uptake is stopped by filtration through an “unifilter 96-wells GFB” Packard plate washed with Krebs buffer containing 25 mM NaHCO3 in order to eliminate the free [^3H]-norepinephrine. The radioactivity associated to the synaptosomes retained onto the unifilter corresponding to the uptake is then measured with a microplate scintillation counter Topcount, Packard using a scintillation liquid microscint 0, Packard.

## CNCCCC1c2ccccc2C=Cc2ccccc21 [protriptyline]
[1]
  inhibition at 10 µM: < 50%

## CN(C)CCCN1c2ccccc2CCc2ccccc21 [imipramine]
[2]
  inhibition at 10 µM: < 50%
[1]
  inhibition at 10 µM: < 50%

## Fc1ccc(C(OCCN2CCN(CCCc3ccccc3)CC2)c2ccc(F)cc2)cc1 [GBR 12909]
[2]; initial test at 10 μM in duplicate
  inhibition at 10 µM: < 50%
